{
  "source": "patent US12029738B2",
  "about": "“Antiproliferative compounds and methods of use thereof” (Celgene Corporation, priority 2017, dated 2024)",
  "key": {"[1]": {"system": "non-selective α1 adrenergic receptor", "assay": "α1 adrenergic receptor radioligand binding ([3H]prazosin)", "conditions": "rat cerebral cortex", "description": "(§1) α1 Adrenergic and Dopamine D2 Receptors. Methods: Binding and functional assays for α1 adrenergic and dopamine D2 receptors were performed by Eurofins Cerep according to their methods.\nα1 Adrenergic Receptor. Binding at 10 μM. The binding assay evaluated the affinity of test article for the non-selective α1 adrenergic receptor in rat cerebral cortex. Membrane homogenates of cerebral cortex were incubated in duplicate for 60 minutes at room temperature with 0.25 nM [^3H]prazosin in the absence or presence of test articles at 10 μM. After the incubation period, samples were filtered through glass fiber filters, the filters dried and then counted for radioactivity using a scintillation counter. Results are expressed as mean percent inhibition of control radioligand binding.\nBinding IC50. […] Compound A was tested at 0.01-30 μM. […] Compound 1 and Compound 2, the S-enantiomer of Compound 1, were assayed at 0.03-100 μM. Radioactivity was measured as described above. The IC50 was defined as the concentration causing a half-maximum inhibition of control specific binding."}, "α1A adrenergic receptor": {"biological_target": "T1, α1A adrenergic receptor (Homo sapiens, UniProt P35348)", "T1 construct": "host or cells: CHO cells", "T1 sequence (P35348 1-466)": "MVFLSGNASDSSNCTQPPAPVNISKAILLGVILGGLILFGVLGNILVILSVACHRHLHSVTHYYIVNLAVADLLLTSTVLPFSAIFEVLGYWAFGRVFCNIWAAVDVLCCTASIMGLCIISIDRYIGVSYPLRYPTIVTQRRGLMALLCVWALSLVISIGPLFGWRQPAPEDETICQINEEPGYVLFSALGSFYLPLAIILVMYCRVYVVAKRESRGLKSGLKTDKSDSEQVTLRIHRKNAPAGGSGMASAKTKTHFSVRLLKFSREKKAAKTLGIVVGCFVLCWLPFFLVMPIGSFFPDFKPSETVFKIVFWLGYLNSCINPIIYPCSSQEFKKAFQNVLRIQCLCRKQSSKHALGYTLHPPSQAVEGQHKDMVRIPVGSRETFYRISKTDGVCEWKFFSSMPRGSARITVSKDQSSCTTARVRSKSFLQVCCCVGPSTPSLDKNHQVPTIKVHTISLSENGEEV", "assay": "α1A adrenergic receptor antagonist assay (calcium mobilization, CHO cells)", "format": "cell-based", "conditions": "epinephrine 3 nM; calcium mobilization; read-out: Antagonism IC50 α1A", "description": "as §1\nAntagonist activity. The antagonistic effects of test compounds on the α1A and α1B adrenergic receptors were measured using human receptor-transfected Chinese hamster ovary (CHO) cells. Antagonist activity was determined by measuring compound effect on agonist (epinephrine)-induced calcium mobilization in the α1A receptor assay or cAMP levels in the α1B receptor assay. In these experiments, CHO cells were incubated in duplicate at room temperature with test article and epinephrine at 3 nM in the α1A receptor assays or at 3000 nM in the α1B receptor assay. Compound A was tested in the α1A receptor assay at 0.01-30 μM. […] Compound 1 and Compound 2 were assayed at 0.03 to 30 μM in the α1A receptor assay and 0.03 to 100 μM in the α1B receptor assay. In the α1A receptor assay, cytosolic calcium levels were measured fluorometrically using the fluorescent probe, Fluo4 Direct. Intracellular cAMP levels in the α1B adrenergic receptor assay were measured by homogenous time-resolved fluorescence (HTRF). The antagonism IC50 was defined as the concentration causing a half-maximum inhibition of control agonist response."}, "dopamine D2S receptor [2]": {"biological_target": "T2, dopamine D2S receptor (Homo sapiens, UniProt P14416)", "T2 construct": "host or cells: HEK-293 cells (membrane homogenates)", "T2 sequence (P14416 1-414 isoform P14416-2)": "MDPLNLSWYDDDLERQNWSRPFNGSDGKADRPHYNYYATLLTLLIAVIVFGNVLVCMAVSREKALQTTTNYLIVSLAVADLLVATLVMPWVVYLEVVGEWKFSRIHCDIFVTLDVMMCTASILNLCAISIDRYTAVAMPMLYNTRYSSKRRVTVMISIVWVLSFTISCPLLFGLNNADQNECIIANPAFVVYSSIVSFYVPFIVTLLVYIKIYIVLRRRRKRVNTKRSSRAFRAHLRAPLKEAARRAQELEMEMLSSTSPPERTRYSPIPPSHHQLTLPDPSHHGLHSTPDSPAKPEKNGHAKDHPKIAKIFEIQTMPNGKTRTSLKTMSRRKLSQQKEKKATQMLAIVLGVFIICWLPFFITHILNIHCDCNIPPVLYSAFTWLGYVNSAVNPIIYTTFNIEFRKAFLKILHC", "assay": "Dopamine D2S receptor radioligand binding (HEK-293)", "description": "as §1\nDopamine D2 Receptor. Binding at 10 μM. The binding assay evaluated the affinity of test articles for the dopamine D2 receptor in transfected human embryonic kidney (HEK)-293 cells. For determining the binding in the D2S receptor assay, test article was incubated with 0.3 nM [^3H] methylspiperone or 1 nM [^3H] 7-hydroxy-2-N,N-dipropylaminotetralin (7-OH-DPAT). [3H] Methylspiperone at 0.3 nM also was used as control ligand in the D2L binding assay. Cell membrane homogenates were incubated in duplicate at room temperature for 60 minutes with ligand in the absence or presence of test articles at 10 μM. After the incubation period, samples were filtered through glass fiber filters, the filters dried and then counted for radioactivity using a scintillation counter. Results are expressed as mean percent inhibition of control radioligand binding.\nBinding IC50. To determine the binding IC50 in the D2 receptor assays, HEK-293 were tested as described above but with varying concentrations of test article. Compound A was tested at 0.01-30 μM in the D2S radioligand binding assay. […] Compound 1 was assayed at 0.03-100 μM in both the D2S and D2L assays, while Compound 2 was tested at 0.03-100 μM in the D2S assay and 0.01-100 μM in the D2L assays. The IC50 was defined as the concentration causing a half-maximum inhibition of control specific binding."}, "dopamine D2S receptor [3]": {"biological_target": "T2, dopamine D2S receptor", "assay": "Dopamine D2S receptor agonist assay (impedance, HEK-293)", "format": "cell-based", "conditions": "impedance; versus dopamine control; read-out: D2S Agonism EC50", "description": "as §1\nAgonist activity. The agonism of test compounds on the dopamine D2S receptor was assessed using human receptor-transfected HEK-293 cells. Agonist activity was determined by measuring compound effect on impedance modulation. In these experiments, HEK-293 cells were incubated in duplicate at 28° C. with test article. Compound A was tested at 0.01-30 μM. […] Dopamine (3 μM) was used as an agonist control. Impedance measurements were monitored for 10 minutes after ligand addition using cellular dielectric spectroscopy. The EC50 was defined as the concentration causing a half-maximum response, compared to the control agonist (dopamine) response."}, "in vivo": {"assay": "in vivo", "conditions": "rat", "description": "7-Day Exploratory Toxicology Studies in Male Rats. Methods. Male CD-IGS rats (n=5/group for toxicologic assessment; n=4/group for toxicokinetic assessment) were dosed once daily by oral gavage (10 mL/kg) with vehicle (0.5% HPMC/0.25% Tween-80 in 50 mM citrate, pH 2.6-2.8) or test articles (Compound A or Compound 1) at 100, 300 or 1000 mg/kg/day for 7 consecutive days. Blood samples for toxicokinetics were collected on Days 1 and 7. […] Body weight was recorded at randomization, prior to dosing on Days 1-7 and prior to necropsy. Samples for hematology and serum chemistry analyses were collected on Day 8, approximately 24 h after the last dose. Rats were euthanized on Day 8 for necropsy. Anatomic pathology evaluation consisted of gross observation, organ weight and histopathologic examination of select tissues."}, "[4]": {"system": "neutrophil progenitors (BM CD34+ cells from healthy donors)", "assay": "In vitro maturation of neutrophil progenitors, dexamethasone alone and with Compound 2", "description": "Methods. To understand the effects of dexamethasone on neutropenia, in vitro cultures of BM CD34^+ cells from healthy donors were used to evaluate the neutropenic events mediated by dexamethasone as a single agent and in combination with Compound 2. To define the effects of dexamethasone monotherapy in this model, 1, 10, or 100 nM dexamethasone exposure was maintained for 30 h comparing 7 different dosing schedules (FIG. 11). For combination studies, single exposure Compound 2 (1, 10, or 100 nM) and dexamethasone were maintained for 6 and 30 h, respectively, starting at Day 13 of culture."}, "[5]": {"system": "lenalidomide-resistant NCI-H929 (H929-1051) multiple myeloma/plasmacytoma tumors", "assay": "H929-1051 xenograft, Compound 2 alone and with dexamethasone", "format": "in vivo, mouse", "conditions": "single agent dexamethasone 0.5 mg/kg oral once daily"}, "[6]": {"system": "multiple myeloma and plasma cell leukemia cell lines (OPM2.P10, RPMI.8226, L363, JJN-3)", "assay": "Combination with proteasome inhibitor pulse (flow cytometry, 72 h)", "format": "cell-based, human", "conditions": "L363; 1 h pulse", "protocol": "Twenty four hours prior to treatment with a proteasome inhibitor and test compound, an appropriate number of cells were split to a concentration of 0.2×10^6/mL in fresh media to allow for exponential growth. On the day of treatment, compounds were freshly solvated in DMSO. Proteasome inhibitors bortezomib or carfilzomib were diluted and added to pre-warmed culture media at the final working concentrations of 150 nM or 300 nM for bortezomib and 300 nM or 550 nM for carfilzomib. Proteasome inhibitor concentrations were determined based upon clinical Cmax concentrations as well as previous studies in each cell line which determined the duration and concentration of PI required to inhibit a specific amount of β5 proteasome activity. Cells were counted and an appropriate number were placed into media containing proteasome inhibitor and thoroughly mixed. After incubation for 1 h at 37° C., 5% CO2, cells were washed two times with 40 mL of complete media to remove the proteasome inhibitor. […] Plated cells were cultured at 37° C., 5% C02, for the remainder of the experiment, up to 72 h. Every 24 h, proteasome inhibition was monitored by the Cell-Based Proteasome-Glo Assay. Proliferation and apoptosis were measured at 72 h by flow cytometry. Cells were stained with APC Annexin-V and 7-AAD to enumerate the number of viable cells remaining in culture.\nAn in vitro cell assay was established in order to mimic the clinical pharmacokinetics (PK) and pharmacodynamics (PD) of exposure to proteasome inhibitors bortezomib and carfilzomib."}, "[7]": {"system": "lenalidomide-resistant NCI-H929 (H929-1051) multiple myeloma/plasmacytoma tumors", "assay": "H929-1051 xenograft, Compound 2 alone and with bortezomib", "format": "in vivo, mouse"}},
  "data": [
    {"smiles": "O=C1CCC(N2Cc3c(OCc4ccc(CN5CCN(c6ccc(F)cc6F)CC5)cc4)cccc3C2=O)C(=O)N1", "note": "(racemic) [Compound A, 3-(4-((4-((4-(2,4-difluorophenyl)piperazin-1-yl)methyl)benzyl)oxy)-1-oxoisoindolin-2-yl)piperidine-2,6-dione]", "values": [
      {"measurement": "Adrenergic α1 (non-selective) % Inhibition (10 μM)", "setting": "[1]; 10 μM, 0.25 nM [3H]prazosin", "value": 102, "unit": "%"},
      {"measurement": "IC50", "setting": "[1]; [3H]prazosin", "value": 64, "unit": "nM"},
      {"measurement": "IC50", "setting": "α1A adrenergic receptor", "value": 14, "unit": "nM"},
      {"measurement": "IC50", "setting": "dopamine D2S receptor [2]; read-out: D2S Binding IC50", "value": 150, "unit": "nM"},
      {"measurement": "inhibition at 10 µM", "setting": "dopamine D2S receptor [2]; read-out: Dopamine D2S % Inhibition (10 μM)", "value": 99, "unit": "%"},
      {"measurement": "EC50", "setting": "dopamine D2S receptor [3]", "value": 16, "unit": "nM"},
      {"measurement": "AUC(0-t)", "setting": "in vivo; male, CD-IGS, po, 100 mg/kg/day", "value": 441, "unit": "µM·h"},
      {"measurement": "AUC(0-t)", "setting": "in vivo; male, CD-IGS, po, 300 mg/kg/day", "value": 1230, "unit": "µM·h"},
      {"measurement": "AUC(0-t)", "setting": "in vivo; male, CD-IGS, po, 1000 mg/kg/day", "value": 1760, "unit": "µM·h"},
      {"measurement": "dose at which abnormal stomach content (dry, feed material) was observed grossly", "setting": "in vivo; male, CD-IGS, po, 7 days", "value": "≥ 100", "unit": "mg/kg"},
      {"measurement": "dose at which clinical signs of toxicity (hunched posture, piloerection, decreased activity) and decreased body weight were observed", "setting": "in vivo; male, CD-IGS, po, 7 days", "value": "≥ 300", "unit": "mg/kg"},
      {"measurement": "test article-related microscopic findings", "setting": "in vivo", "value": "minimal multifocal myocardial necrosis and mixed cell infiltration in hearts of rats at all dose levels"}
    ]},
    {"smiles": "C[C@@H]1C[C@H]2[C@@H]3CCC4=CC(=O)C=C[C@]4(C)[C@@]3(F)[C@@H](O)C[C@]2(C)[C@@]1(O)C(=O)CO", "note": "[Dexamethasone, dexamethasone]", "values": [
      {"measurement": "viability of immature and mature neutrophils", "setting": "[4]; alone or in combination", "value": "not affected"},
      {"measurement": "maturation of neutrophil progenitors / late-stage neutrophil precursors", "setting": "[4]; single agent, 1, 10, 100 nM, dexamethasone 30 h, Compound 2 6 h", "value": "not affected"},
      {"measurement": "tumor growth inhibition / tumor volume reduction (TVR)", "setting": "[5]", "value": 20, "unit": "%"}
    ]},
    {"smiles": "CC(C)C[C@H](NC(=O)[C@H](Cc1ccccc1)NC(=O)c1cnccn1)B(O)O", "note": "[bortezomib]", "values": [
      {"measurement": "single agent activity on cell viability", "setting": "[6]", "value": "no single agent activity on cell viability"},
      {"measurement": "tumor growth inhibition / tumor volume reduction (TVR)", "setting": "[7]; single agent bortezomib 1 mg/kg iv single dose day 31, day 50", "value": 60, "unit": "%"},
      {"measurement": "day by which tumors reached approximately 2000 mm^3", "setting": "[7]; single agent, 1 mg/kg", "value": 66, "unit": "days"}
    ]}
  ]
}
